From patent US20200383983A1, “CGRP ANTAGONISTS FOR THE TREATMENT OF MEDICATION OVERUSE HEADACHE, POST-TRAUMATIC HEADACHE, POST-CONCUSSION SYNDROME AND VERTIGO” (Allergan Sales, LLC, priority 2019, published 2020)

Legend:
[1] = Case scenario: patient with post-traumatic headache (PTH), subjective pain rating; assay type: in vivo, human; settings: for pain rating at worst, subjective rating scale of zero (no pain) to 10 (worst pain): before treatment 10; for pain rating at best, subjective rating scale of zero (no pain) to 10 (worst pain): before treatment eight; for pain rating on average, subjective rating scale of zero (no pain) to 10 (worst pain): before treatment nine
Text: (§1) The following non-limiting examples provide those of ordinary skill in the art with possible case scenarios and specific methods to treat conditions within the scope of the present disclosure and are not intended to limit the scope of the disclosure.
A person complains of right-sided frontal headaches. The patient stated the headaches began 3 months ago after accidentally being hit in the face at the right frontal, maxillary, and zygomatic bones with a heavy instrument. They deny any loss of consciousness at the time of the incident and describes the pain as a “constant achy” to “stabbing” pain primarily over the right eye and right zygomatic bone. They complain of intermittent blurred vision when the pain becomes “stabbing.” They also complain of intermittent tinnitus. On a subjective rating scale of zero (no pain) to 10 (worst pain), the patient rates their pain as eight at best, nine on average, and 10 at worst. Results from a radiographic scan of the skull, CT scan of the brain, and MRI scan of the brain and cervical spine are normal. Results from slit lamp and neurologic testing are also normal. The patient is diagnosed to have PTH. The patient can be treated with ubrogepant at a dose of 100 mg, once a day. The treatment with ubrogepant can reduce the pain experienced by the patient and the patient can rate their pain as five at best, six on average, and nine at worst.
A person complains of right-sided frontal headaches. The patient stated the headaches began 3 months ago after accidentally being hit in the face at the right frontal, maxillary, and zygomatic bones with a heavy instrument. They deny any loss of consciousness at the time of the incident and describes the pain as a “constant achy” to “stabbing” pain primarily over the right eye and right zygomatic bone. They complain of intermittent blurred vision when the pain becomes “stabbing.” They also complain of intermittent tinnitus. On a subjective rating scale of zero (no pain) to 10 (worst pain), the patient rates their pain as eight at best, nine on average, and 10 at worst. Results from a radiographic scan of the skull, CT scan of the brain, and MRI scan of the brain and cervical spine are normal. Results from slit lamp and neurologic testing are also normal. The patient is diagnosed to have PTH. The patient can be treated with erenumab at a dose of 70 mg by subcutaneous administration. A month after the erenumab administration, the patient can rate their pain as five at best, six on average, and nine at worst.

[2] = Case scenario: patient with chronic migraine and medication overuse headache, weaning off Fiorinal; assay type: in vivo, human
Text: as §1
[…] This responded well to Excedrin at that time. As they became older their headaches became more frequent and by the time they were in their late 20's they had headache on more than half the days of the month. Excedrin was no longer effective, and their primary care physician prescribed Fiorinal (aspirin, caffeine and barbiturate compound). […] […] Their primary care physician, on routine blood work noted: worsening renal and liver function tests. The patient reported depression and disability related to their headache disorder. They could not work or participate in family events. They were referred to a neurologist who specialized in headache disorders. They diagnosed them with episodic migraine without aura that had transformed to chronic migraine with associated medication overuse headache. They also diagnosed end organ damage with hepatic and renal damage secondary to analgesic overuse. They recommended a preventive treatment and that they taper off of Fiorinal. The patient started Topiramate as a migraine preventive and despite their best efforts they were unable to wean off of Fiorinal, due to breakthrough headache. They returned to the Neurologist and they prescribed Ubrogepant 50 mg daily for 10 days. […] They continued Topiramate treatment and used Ubrogepant 50 mg a day as needed for breakthrough headache. […] They were able to return to work and to participate in family events.

[3] = Case scenario: patient with migraine without aura and medication overuse headache (triptan overuse); assay type: in vivo, human; settings: 50 mg once a day, patient averaging 25 doses of oral triptan per month
Text: as §1
A person visits a headache clinic with almost daily migraine attacks. Their migraines have been ongoing since they were […]. […] Eventually, however, the migraine attacks became longer, lasting up to 3 or 4 days and forcing them to take 4 or 5 doses of triptan per attack. Currently, they are averaging 25 doses of oral triptan per month. They are diagnosed with migraine without aura and medication overuse headache. They are treated with ubrogepant at a dose of 50 mg, once a day.

[4] = stated generally, small molecules compared with monoclonal antibodies; cited from earlier work
[5] = 70 mg subcutaneous, a month after administration

## C[C@@H]1[C@H](c2ccccc2)C[C@H](NC(=O)c2cnc3c(c2)C[C@@]2(C3)C(=O)Nc3ncccc32)C(=O)N1CC(F)(F)F [ubrogepant]
[1]; 100 mg once a day
  pain rating at worst, subjective rating scale of zero (no pain) to 10 (worst pain): nine
  pain rating at best, subjective rating scale of zero (no pain) to 10 (worst pain): five
  pain rating on average, subjective rating scale of zero (no pain) to 10 (worst pain): six
[2]; 50 mg a day as needed, after 3 months
  need of as-needed use for breakthrough headache: once or twice a month
[2]; 50 mg a day as needed, continued Topiramate
  effect on migraine attacks and recurrence: effectively ended their migraine attacks and they had no recurrence requiring re-treatment
[2]; 50 mg a day as needed, first month after weaning off Fiorinal
  need of as-needed use for breakthrough headache: twice a week
[2]; 50 mg daily for 10 days, with Topiramate as preventive
  weaning off the overused medication (Fiorinal): able to successfully wean off of Fiorinal
[3]
  intensity and frequency of migraine: can reduce the intensity and frequency of migraine
[4]
  half-life: measured in hours

## C[C@@H]1[C@H](c2c(F)ccc(F)c2F)C[C@H](NC(=O)c2cnc3c(c2)C[C@@]2(C3)C(=O)Nc3ncccc32)C(=O)N1CC(F)(F)F [atogepant]
[4]
  half-life: measured in hours

## N[C@@H]1c2cccnc2[C@H](OC(=O)N2CCC(n3c(=O)[nH]c4ncccc43)CC2)CC[C@H]1c1cccc(F)c1F [rimegepant]
[4]
  half-life: measured in hours

B1: erenumab (antibody, chains of the INN, looked up, V domains shown)
VH: QVQLVESGGGVVQPGRSLRLSCAASGFTFSSFGMHWVRQAPGKGLEWVAVISFDGSIKYSVDSVKGRFTISRDNSKNTLFLQMNSLRAEDTAVYYCARDRLNYYDSSGYYHYKYYGMAVWGQGTTVTVSS
VL: QSVLTQPPSVSAAPGQKVTISCSGSSSNIGNNYVSWYQQLPGTAPKLLIYDNNKRPSGIPDRFSGSKSGTSTTLGITGLQTGDEADYYCGTWDSRLSAVVFGGGTKLTVL
[1]; [5]
  pain rating at worst, subjective rating scale of zero (no pain) to 10 (worst pain): nine
  pain rating at best, subjective rating scale of zero (no pain) to 10 (worst pain): five
  pain rating on average, subjective rating scale of zero (no pain) to 10 (worst pain): six
